In patent US7067517B2 (priority 2001, dated 2006):
Like-named read-outs stand apart in the source and are kept apart here.

Assays:
[1] = target: T1, Hormone-sensitive lipase (HSL) (Homo sapiens, UniProt Q05469); type: biochemical
T1 sequence (Q05469 1-1076): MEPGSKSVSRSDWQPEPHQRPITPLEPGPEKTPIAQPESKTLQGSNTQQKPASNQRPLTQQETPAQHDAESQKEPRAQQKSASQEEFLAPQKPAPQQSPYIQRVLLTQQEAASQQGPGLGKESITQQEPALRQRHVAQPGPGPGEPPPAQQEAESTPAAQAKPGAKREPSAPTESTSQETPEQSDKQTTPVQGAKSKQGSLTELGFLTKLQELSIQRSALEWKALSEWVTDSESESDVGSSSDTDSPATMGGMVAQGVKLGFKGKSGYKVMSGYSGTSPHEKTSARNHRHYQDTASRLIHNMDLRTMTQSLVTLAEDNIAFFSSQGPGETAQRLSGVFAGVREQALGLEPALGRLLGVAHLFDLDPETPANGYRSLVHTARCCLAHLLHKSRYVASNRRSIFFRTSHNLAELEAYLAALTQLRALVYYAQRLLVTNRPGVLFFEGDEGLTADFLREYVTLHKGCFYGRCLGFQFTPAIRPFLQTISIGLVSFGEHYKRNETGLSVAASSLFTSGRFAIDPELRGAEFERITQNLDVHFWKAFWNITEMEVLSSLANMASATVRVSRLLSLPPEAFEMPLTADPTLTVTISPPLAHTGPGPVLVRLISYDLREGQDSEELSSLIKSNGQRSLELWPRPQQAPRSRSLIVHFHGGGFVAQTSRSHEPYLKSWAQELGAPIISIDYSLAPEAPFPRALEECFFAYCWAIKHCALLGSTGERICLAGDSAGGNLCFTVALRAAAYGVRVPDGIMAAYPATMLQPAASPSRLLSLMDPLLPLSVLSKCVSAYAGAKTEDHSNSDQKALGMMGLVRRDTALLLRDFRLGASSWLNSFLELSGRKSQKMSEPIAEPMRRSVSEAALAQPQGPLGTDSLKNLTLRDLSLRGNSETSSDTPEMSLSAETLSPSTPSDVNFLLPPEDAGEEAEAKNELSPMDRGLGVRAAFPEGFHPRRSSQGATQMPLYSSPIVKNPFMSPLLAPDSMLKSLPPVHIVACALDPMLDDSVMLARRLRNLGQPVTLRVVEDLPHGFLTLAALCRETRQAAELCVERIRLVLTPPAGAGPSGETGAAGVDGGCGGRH
Text: (§1) Materials. The Hormone-sensitive lipase was provided by Dr. Cecilia Holm, from Lund University Sweden or produced and purified by Novo Nordisk (NN) using the reagents and protocols used by Dr. Holm. The substrates used are: ^3H-labeled triolein (TO) from Amersham, Buckinghamshire, U.K. cat No. TRA191; 5–20 Ci/mmol dissolved in toluene, triolein (Sigma, Cat. No. T-1740), fluorochrome-labeled triacylglyceride (cis-octadec-9-enoic acid 2-[12-(7-nitrobenzo[1,2,5]oxadiazol-4-ylamino)dodecanoyloxy]-1-cis-octadec-9-enoyloxymethyl-ethyl ester) prepared by Novo Nordisk (NN) by conventional methods, and 1,3-(di[^3H]-stearin), 2-(PEG-Boitin)glycerol prepared in collaboration with Amersham Pharmacia Biotech, UK and described in WO 01/073442. Phosphatidyl choline (PC) and phosphatidyl inositol (PI) are from Sigma (St Luis Mo. cat. Nos. P-3556 and P-5954 respectively). All other reagents are of commercial grade and obtained from various commercial sources.
2898.2: This method is an enzyme assay based upon SPA (scintillation proximity assay) particles. The substrate, 1,3-(di-[^3H]-stearin), 2-(PEG-Biotin)-glycerol, is marked with ^3H in both fatty acid moieties in the tri-glyceride. The third moiety of the tri-glyceride is a PEG linked Biotin. The substrate binds through Biotin to streptavidin in the SPA particles and the proximity between the radioactive tritium in the stearic acid moiety and the SPA particle results in emission of light from the SPA particles. The assay is an on-bead assay where HSL degrades the substrate, where after ^3H-stearin acid is released from the bead. The amount of light emitted is proportional to the amount of substrate bound to the receptor. When a compound that inhibits the activity of HSL is present it results in a decrease in degradation of the substrate and thus an increase in the amount of light emitted and a concomitant increase in % Eff. % Eff(% Inhibition)=(S−S0Eff)/(SmaxEff−S0Eff)×100 Where S=signal in dpm., SOEff=no inhibitor added, SmaxEff=with maximum concentration of inhibitor. Results

[2] = target: T1, Hormone-sensitive lipase (HSL); assay: biochemical; type: biochemical; conditions: for activity at 10 µM: read-out: Test 3180.2 HSL % ACTIVITY All
Text: as §1
3180.2: Assay for determination of percent inhibition by compound at 10 μM concentration.
A lipid emulsion with ^3H-Triolein and phospholipid is used as substrate with a standard cencentration of highly purified HSL. BSA is added as product receptor. The substrate is prepared as follows:
30 μl PC:PI (20 mg/ml solution of PC:PI 3:1 prepared in chloroform)+128 μl cold TO+15 μl ^3H-TO are mixed and then evaporated under a gentle stream of N2 followed by 20–30 minutes in a Speedvac to ensure the absence of residual solvent.
Compound and HSL are incubated for 30 min at 25° C. before addition of substrate. Reaction is stopped after 30 min at 25° C. by adding a mixture of methanol, chloroform and heptane at high pH. Formed product is separated from substrate by phase separation.
Results are given as percent activity relative to an un-inhibited sample (no compound).

[3] = SPA on-bead assay, % Eff (% Inhibition)
[4] = 10 μM concentration, percent activity relative to an un-inhibited sample (no compound)

Molecule	Test 2898.2 HSL2 % Inhibition All [1, 3] [%]	activity at 10 µM [2, 4] [%]	other results
1-Biphenyl-4-yl-3-methylamino-propenone-cyclohexyl-carbamic acid [Example 115]	–	–	Test 2898.2 HSL2 % Inhibition All [1]: 73.6%; Test 3180.2 HSL % ACTIVITY All ([2]; 10 µM): 85%
CN(C)C(=O)On1nnc2ccccc21 [Example 103, Dimethylcarbamic acid benzotriazol-1-yl ester]	101.4	–	activity at 10 µM [2]: 2%
CC(C)C(Cl)=NOC(=O)NCc1ccc(F)cc1 [Example 112, N-(4-Fluorobenzylcarbamoyloxy)-isobutyrimidoyl chloride]	86	–	–
CC(C)C(Cl)=NOC(=O)NCC(O)c1ccccc1 (stereo not drawn) [Example 113, N-(2-Hydroxy-2-phenylethylcarbamoyloxy)-isobutyrimidoyl chloride]	18.3	–	–
O=C(Nc1cccn1-c1ncc(C(F)(F)F)cc1Cl)Oc1ccc(Cl)cc1 [Example 117, [1-(3-Chloro-5-trifluoromethyl-pyridin-2-yl)-1H-pyrrol-2-yl]-carbamic acid 4-chloro-phenyl ester]	–	2	–
CCCCCCSc1nc(-c2ccc(C)cc2)nn1C(=O)N(C)c1ccccc1 [Example 118, N-Methyl-N-phenyl-5-hexylsulfanyl-3-p-tolyl-[1,2,4]triazole-1-carboxamide]	–	24	–
CSc1nc(-c2ccc(Cl)cc2)nn1C(=O)N1CCOCC1 [Example 120, [3-(4-Chlorophenyl)-5-methylsulfanyl-[1,2,4]triazol-1-yl]-morpholin-4-yl-methanone]	–	40	–
CSc1nc(-c2ccc3ccccc3c2)nn1C(=O)N(C)C [Example 121, N,N-Dimethyl-5-methylsulfanyl-3-naphthalen-2-yl-[1,2,4]triazole-1-carboxamide]	–	24	–
CCSc1nc(-c2ccc(Cl)cc2)nn1C(=O)N(C)C [Example 122, N,N-Dimethyl-3-(4-chloro-phenyl)-5-ethylsulfanyl-[1,2,4]triazole-1-carboxamide]	–	14	–
CSc1nc(-c2ccc(-c3ccccc3)cc2)nn1C(=O)N(C)C [Example 123, N,N-Dimethyl-3-biphenyl-4-yl-5-methylsulfanyl-[1,2,4]triazole-1-carboxamide]	–	22	–
CSc1nc(-c2ccc(Cl)cc2)nn1C(=O)N(C)C [Example 124, N,N-Dimethyl-3-(4-chloro-phenyl)-5-methylsulfanyl-[1,2,4]triazole-1-carboxamide]	75.1	–	–
Cc1ccc(CSc2nnc(OC(=O)N(C)C)n2-c2cccc(Cl)c2)cc1 [Example 133, Dimethyl carbamic acid 4-(3-chloro-phenyl)-5-(4-methyl-benzylsulfanyl)-4H-[1,2,4]triazol-3-yl ester]	15.8	–	–
N-Methyl-N-phenethyl-5-ethyl-3-(4-chlorophenyl)-[1,2,4]triazole-1-carboxamide [Example 119]	–	–	Test 3180.2 HSL % ACTIVITY All [2, 4]: 10%
